Measured values: ChEMBL document CHEMBL4483862, “Open-source discovery of chemical leads for next-generation chemoprotective antimalarials” (2018)

System: Plasmodium berghei
Assay: Luciferase/luciferin-expressing antifolate-resistant parasites were used to infect a culture of HepG2 cells that were pre-incubated with compounds. Infected hepatocytes emit light due to the luciferase reaction. Assay results are presented as the percent inhibition of light emission compared to control. […]
Assay type: functional
Settings: sporozoite; for IC90: read-out: LUCIFERASE INFECTION ASSAY - IC90

SMILES	IC90 [µM]	also measured
CCC1CCCCN1CC(=O)Nc1cc(C)nn1-c1nc(C)cc(C)n1 (centres undefined)	> 10	IC50 (HEPG2TOX_HILL_SLOPE 4.29, HEPG2TOX_R_SQUARED 0.929, read-out: LUCIFERASE INFECTION ASSAY - IC50): > 10 µM
Nc1nc(Cl)cc(NCCc2ccccc2)n1	> 13.3	IC50 (HEPG2TOX_HILL_SLOPE 4.29, HEPG2TOX_R_SQUARED 0.965, PBLUC_HILL_SLOPE 3.15, PBLUC_R_SQUARED 0.0969, read-out: LUCIFERASE INFECTION ASSAY - IC50): 10.4 µM
COc1ccc(OC)c(/C=C/C(=O)N2C(=O)c3cccc(N)c3C2=O)c1	> 10	IC50 (HEPG2TOX_HILL_SLOPE 4.32, HEPG2TOX_R_SQUARED 0.934, PBLUC_HILL_SLOPE 15.3, PBLUC_R_SQUARED 0.377, read-out: LUCIFERASE INFECTION ASSAY - IC50): 9.46 µM
CCCCNc1nc(-c2ccccc2)c(C(=O)OCC)cc1C#N	9.48	IC50 (HEPG2TOX_HILL_SLOPE 4.31, HEPG2TOX_R_SQUARED 0.989, PBLUC_HILL_SLOPE 14.5, PBLUC_R_SQUARED 0.263, read-out: LUCIFERASE INFECTION ASSAY - IC50): 8.14 µM
N#C/C(=C\C=C\c1ccccc1[N+](=O)[O-])C(=O)NC1CCCCC1	4.14	IC50 (HEPG2TOX_HILL_SLOPE 4.42, HEPG2TOX_R_SQUARED 0.954, PBLUC_HILL_SLOPE 12.2, PBLUC_R_SQUARED 0.458, read-out: LUCIFERASE INFECTION ASSAY - IC50): 3.46 µM
COc1ccc(C(=O)Nc2nc3ccccc3[nH]2)cc1	> 10	IC50 (HEPG2TOX_HILL_SLOPE 4.46, HEPG2TOX_R_SQUARED 0.552, PBLUC_HILL_SLOPE 2.95, PBLUC_R_SQUARED 0.511, read-out: LUCIFERASE INFECTION ASSAY - IC50): 7.58 µM
Cn1c(-c2ccccc2)nc2cnc(-c3ccc(N)nc3)cc21	> 10	IC50 (HEPG2TOX_HILL_SLOPE 4.2, HEPG2TOX_R_SQUARED 0.898, PBLUC_HILL_SLOPE 2.04, PBLUC_R_SQUARED 0.316, read-out: LUCIFERASE INFECTION ASSAY - IC50): 5.32 µM
O=C(O)c1c(CN2CCN(c3ccccc3)CC2)c(O)c2ccccc2c1O	8.28	IC50 (HEPG2TOX_HILL_SLOPE 4.36, HEPG2TOX_R_SQUARED 0.83, PBLUC_HILL_SLOPE 4.96, PBLUC_R_SQUARED 0.0239, read-out: LUCIFERASE INFECTION ASSAY - IC50): 5.31 µM
O=C(CNc1cccc(S(=O)(=O)N2CCCCC2)c1)NC(=O)NC1CCCC1	> 10	IC50 (HEPG2TOX_HILL_SLOPE 4.49, HEPG2TOX_R_SQUARED 0.873, PBLUC_HILL_SLOPE 2.27, PBLUC_R_SQUARED 0.353, read-out: LUCIFERASE INFECTION ASSAY - IC50): 7.49 µM
CN1CCN(c2ccc(-c3cn4c(-c5ccc6ncccc6c5)cnc4cn3)cn2)CC1	3.03	IC50 (HEPG2TOX_HILL_SLOPE 4.41, HEPG2TOX_R_SQUARED 0.745, PBLUC_HILL_SLOPE 17.7, PBLUC_R_SQUARED 0.338, read-out: LUCIFERASE INFECTION ASSAY - IC50): 2.68 µM
O=C1C(Cl)=C(OC(CO)CO)C(=O)c2ccccc21	1.49	IC50 (HEPG2TOX_HILL_SLOPE 4.19, HEPG2TOX_R_SQUARED 0.978, PBLUC_HILL_SLOPE 3.44, PBLUC_R_SQUARED 0.808, read-out: LUCIFERASE INFECTION ASSAY - IC50): 0.784 µM
CC(=O)Nc1ccc(Nc2cc3c(cn2)nc(-c2ccccc2)n3C)cc1	3.77	IC50 (HEPG2TOX_HILL_SLOPE 4.43, HEPG2TOX_R_SQUARED 0.848, PBLUC_HILL_SLOPE 16.8, PBLUC_R_SQUARED 0.556, read-out: LUCIFERASE INFECTION ASSAY - IC50): 3.31 µM
O=C(NN=CC1C(=O)N(c2ccccc2C(F)(F)F)C(=O)c2ccccc21)c1ccc(F)cc1 (centres undefined)	> 10	IC50 (HEPG2TOX_HILL_SLOPE 4.25, HEPG2TOX_R_SQUARED 0.761, PBLUC_HILL_SLOPE 4.13, PBLUC_R_SQUARED 0.557, read-out: LUCIFERASE INFECTION ASSAY - IC50): 5.89 µM
CCS(=O)(=O)c1ncc(Cl)c(C(=O)Nc2ccccc2C(F)(F)F)n1	4.41	IC50 (HEPG2TOX_HILL_SLOPE 4.53, HEPG2TOX_R_SQUARED 0.715, PBLUC_HILL_SLOPE 8.07, PBLUC_R_SQUARED 0.684, read-out: LUCIFERASE INFECTION ASSAY - IC50): 3.36 µM
COc1cc(C(=O)NNC(=O)c2nn(-c3ccccc3)cc2O)cc(OC)c1OC	> 10	IC50 (HEPG2TOX_HILL_SLOPE 4.57, HEPG2TOX_R_SQUARED 0.844, PBLUC_HILL_SLOPE 7.94, PBLUC_R_SQUARED 0.6, read-out: LUCIFERASE INFECTION ASSAY - IC50): 8.48 µM
N#C/C(=C(\Oc1ccccc1)C(F)(F)F)c1ccccc1	10.9	IC50 (HEPG2TOX_HILL_SLOPE 4.45, HEPG2TOX_R_SQUARED 0.985, PBLUC_HILL_SLOPE 11.8, PBLUC_R_SQUARED 0.682, read-out: LUCIFERASE INFECTION ASSAY - IC50): 9.07 µM

SMILES	IC90 [µM]	also measured
CN1CCN(c2ccc(Cl)cc2NC(=O)Nc2cc(Cl)ccc2N2CCN(C)CC2)CC1	3.56	IC50 (HEPG2TOX_HILL_SLOPE 4.19, HEPG2TOX_R_SQUARED 0.986, PBLUC_HILL_SLOPE 15.5, PBLUC_R_SQUARED 0.444, read-out: LUCIFERASE INFECTION ASSAY - IC50): 3.09 µM
Cc1cc(NCc2ccccn2)n2nc(C)c(-c3ccccc3Cl)c2n1	5.5	IC50 (HEPG2TOX_HILL_SLOPE 4.48, HEPG2TOX_R_SQUARED 0.152, PBLUC_HILL_SLOPE 2.08, PBLUC_R_SQUARED 0.431, read-out: LUCIFERASE INFECTION ASSAY - IC50): 1.91 µM
CCN1C(=O)N(Cc2cccc(OC)c2)C(=O)C12CCN(C(C)CCc1c[nH]c3ccccc13)CC2 (centres undefined)	5.56	IC50 (HEPG2TOX_HILL_SLOPE 4.28, HEPG2TOX_R_SQUARED 0.784, PBLUC_HILL_SLOPE 3.57, PBLUC_R_SQUARED 0.572, read-out: LUCIFERASE INFECTION ASSAY - IC50): 3 µM
CC1(C)C2CCC1(C)C(NC(=O)COc1ccc(Br)cc1Cl)C2 (centres undefined)	8.17	IC50 (HEPG2TOX_HILL_SLOPE 4.37, HEPG2TOX_R_SQUARED 0.564, PBLUC_HILL_SLOPE 4.64, PBLUC_R_SQUARED 0.01, read-out: LUCIFERASE INFECTION ASSAY - IC50): 5.08 µM
Clc1cccc(Cl)c1/C=C/c1nc2ccccc2n1Cc1ccccc1	> 8.7	IC50 (HEPG2TOX_HILL_SLOPE 4.4, HEPG2TOX_R_SQUARED 0.96, PBLUC_HILL_SLOPE 4.2, PBLUC_R_SQUARED 0.29, read-out: LUCIFERASE INFECTION ASSAY - IC50): 5.61 µM
CCOc1ccc(S(=O)(=O)Nc2cc3c4c(oc3c3ccccc23)CC(C)(C)CC4=O)cc1	6.15	IC50 (HEPG2TOX_HILL_SLOPE 4.2, HEPG2TOX_R_SQUARED 0.972, PBLUC_HILL_SLOPE 5.12, PBLUC_R_SQUARED 0.622, read-out: LUCIFERASE INFECTION ASSAY - IC50): 4.01 µM
O=C(Cc1cccs1)Nc1nc2ccccc2nc1N1CCCC1	> 10	IC50 (HEPG2TOX_HILL_SLOPE 4.38, HEPG2TOX_R_SQUARED 0.169, read-out: LUCIFERASE INFECTION ASSAY - IC50): > 10 µM
CCCn1c(C)cc(/C=C(\C#N)C(=O)Nc2c(C)cccc2C(C)C)c1C	2.35	IC50 (HEPG2TOX_HILL_SLOPE 4.53, HEPG2TOX_R_SQUARED 0.804, PBLUC_HILL_SLOPE 3.44, PBLUC_R_SQUARED 0.565, read-out: LUCIFERASE INFECTION ASSAY - IC50): 1.24 µM
COc1ccc(C2=NN=C/C2=N\Nc2cc(C)cc(C)c2)cc1	4.13	IC50 (HEPG2TOX_HILL_SLOPE 4.29, HEPG2TOX_R_SQUARED 0.94, PBLUC_HILL_SLOPE 14.3, PBLUC_R_SQUARED 0.412, read-out: LUCIFERASE INFECTION ASSAY - IC50): 3.54 µM
Oc1ccc(-c2cnc3cnc(-c4ccccc4Cl)cn23)cc1	4.1	IC50 (HEPG2TOX_HILL_SLOPE 4.19, HEPG2TOX_R_SQUARED 0.981, PBLUC_HILL_SLOPE 3.43, PBLUC_R_SQUARED 0.853, read-out: LUCIFERASE INFECTION ASSAY - IC50): 2.16 µM
Cc1cc2ccccn2c1C(=O)c1nc(S(C)(=O)=O)ncc1Cl	> 10	IC50 (HEPG2TOX_HILL_SLOPE 4.52, HEPG2TOX_R_SQUARED 0.995, PBLUC_HILL_SLOPE 10.9, PBLUC_R_SQUARED 0.162, read-out: LUCIFERASE INFECTION ASSAY - IC50): 8.19 µM
COC(=O)c1ccc(N2CCN(c3ccccc3Cl)CC2)nc1	> 9.95	IC50 (HEPG2TOX_HILL_SLOPE 4.29, HEPG2TOX_R_SQUARED 0.95, PBLUC_HILL_SLOPE 9.99, PBLUC_R_SQUARED 0.342, read-out: LUCIFERASE INFECTION ASSAY - IC50): 8.41 µM
O=C1c2ccccc2C(O)(C#Cc2ccccc2)N1c1ccccc1 (centres undefined)	8.45	IC50 (HEPG2TOX_HILL_SLOPE 4.52, HEPG2TOX_R_SQUARED 0.977, PBLUC_HILL_SLOPE 3.23, PBLUC_R_SQUARED 0.385, read-out: LUCIFERASE INFECTION ASSAY - IC50): 4.28 µM
Cc1cc(Br)ccc1OCC(=O)NC(C)c1ccccc1 (centres undefined)	> 9.48	IC50 (HEPG2TOX_HILL_SLOPE 4.44, HEPG2TOX_R_SQUARED 0.285, read-out: LUCIFERASE INFECTION ASSAY - IC50): > 9.48 µM
O=C1OC(c2ccc(C(=O)c3ccccc3)cc2)=N/C1=C1\CCCCCN1	> 10	IC50 (HEPG2TOX_HILL_SLOPE 4.29, HEPG2TOX_R_SQUARED 0.683, PBLUC_HILL_SLOPE 20.1, PBLUC_R_SQUARED 0.207, read-out: LUCIFERASE INFECTION ASSAY - IC50): 9.14 µM
O=C(Nc1ccccc1)N1CCc2nc(NCc3cccc(Oc4ccccc4)c3)ncc2C1	3.15	IC50 (HEPG2TOX_HILL_SLOPE 4.26, HEPG2TOX_R_SQUARED 0.801, PBLUC_HILL_SLOPE 11.5, PBLUC_R_SQUARED 0.365, read-out: LUCIFERASE INFECTION ASSAY - IC50): 2.6 µM
